Experimental data published in patent publication US10618914B2 (UNIVERSITY OF PITTSBURGH—OF THE COMMONWEALTH SYSTEM OF …, priority 2015, dated 2020).
Several values for one entry are separate records, joined by “and”; a condition that tells them apart may be missing. Equal entries are not always repeated. Where two headings read alike, the source gives them in different places.

How the values were obtained:
Cal33 cells = assay: Cal33 growth inhibition; assay type: cell-based; conditions: for GI50: Table 5, * average of 2 experiments
STAT3 = assay: HCS STAT3 assay; assay type: cell-based
[1] = Homo sapiens, CAL-33, Table 1, read-out: Growth Inhibition Cal33 (mean IC50)
[2] = Table 2, read-out: STAT3 (IC50)
[3] = Table 2, read-out: Cal33 (IC50)
[4] = FIG. 3, read-out: STAT3 potency (IC50)
[5] = Table 1, read-out: STAT3 (mean IC50)
[6] = Homo sapiens, CAL-33, Table 2, read-out: Cal33 (IC50)

| Compound | IC50 (STAT3; [2]) | IC50 (Cal33 cells; [3]) | further results |
| --- | --- | --- | --- |
| COc1ccc(C2=Nn3c(nnc3-c3[nH]nc4c3CCC4)SC2)cc1 | – | – | IC50 (Cal33 cells; [1]): 0.15 µM |
| CC1Sc2nnc(-c3cc(-c4ccc(F)cc4)n[nH]3)n2N=C1c1ccccc1 (racemic) [compound 10135] | 3.8 µM | 33.4 µM | – |
| CC1Sc2nnc(-c3[nH]nc4c3CCC4)n2N=C1c1ccccc1 (racemic) [compound 10173] | 18.2 µM | 41.8 µM | – |
| CC1Sc2nnc(-c3cc(-c4ccc(Cl)cc4)n[nH]3)n2N=C1c1ccccc1 (racemic) [compound 10174] | 5.7 µM | 35.5 µM | – |
| CC1Sc2nnc(-c3[nH]nc4c3CCCC4)n2N=C1c1ccccc1 (racemic) [compound 10175] | 22.4 µM | 40.2 µM | – |
| COc1ccc(C2=Nn3c(nnc3-c3cc(-c4ccc(F)cc4)n[nH]3)SC2C)cc1 (racemic) [compound 10204] | 4.2 µM | 33 µM | – |
| COc1ccc(C2=Nn3c(nnc3-c3cc(-c4ccc(Cl)cc4)n[nH]3)SC2C)cc1 (racemic) [compound 10205] | – | 2.1 µM and 2 µM | – |
| COc1ccc(C2=Nn3c(nnc3-c3cc(-c4ccc(Cl)cc4)n[nH]3)SC2C)cc1 (centres unmarked) [Cmpd 24] | – | – | GI50 (Cal33 cells): 2.2 ± 0.3 µM |
| COc1ccc(C2=Nn3c(nnc3-c3cc(-c4ccccc4)n[nH]3)SC2CCN)cc1 (centres unmarked) [Cmpd 30] | – | – | GI50 (Cal33 cells): 2.5 µM |
| COCCC1Sc2nnc(-c3cc(-c4ccccc4)n[nH]3)n2N=C1c1ccc(OC)cc1 (centres unmarked) [Cmpd 31] | – | – | GI50 (Cal33 cells): 0.04 µM |
| COc1ccc(C2=Nn3c(nnc3-c3[nH]nc4c3CCCC4)SC2)cc1 [UPCDC10073] | – | – | IC50 (STAT3; [5]): 17 µM; IC50 (Cal33 cells; [1]): 0.2 µM |
| Clc1ccc(C2=Nn3c(nnc3-c3[nH]nc4c3CCCC4)SC2)cc1 [UPCDC10084] | – | – | IC50 (STAT3; [5]): 21.3 µM; IC50 (Cal33 cells; [1]): 0.6 µM |
| c1ccc2c(C3=Nn4c(nnc4-c4[nH]nc5c4CCC5)SC3)c[nH]c2c1 [UPCDC10115] | – | – | IC50 (STAT3; [5]): 38 µM; IC50 (Cal33 cells; [1]): 0.21 µM |
| COc1ccc(C2=Nn3c(nnc3-c3[nH]nc4c3CCC4)SC2C)cc1 (centres unmarked) [UPCDC10262] | 8.8 µM | – | IC50 (STAT3; [5]): 8.78 µM; IC50 (Cal33 cells; [1]): 0.18 µM; IC50 (Cal33 cells; [6]): 0.18 µM |
| CC1Sc2nnc(-c3[nH]nc4c3CCC4)n2N=C1c1ccc(Cl)cc1 (centres unmarked) [UPCDC10281] | 7.21 µM | – | IC50 (STAT3; [5]): 7.21 µM; IC50 (Cal33 cells; [1]): 0.44 µM; IC50 (Cal33 cells; [6]): 0.44 µM |
| COc1ccc(C2=Nn3c(nnc3-c3[nH]nc4c3CCC4)SC2CC(C)C)cc1 (centres unmarked) [UPCDC10305] | 5.1 µM | – | IC50 (STAT3; [4]): < 10 µM; IC50 (STAT3; [5]): 5.14 µM; IC50 (Cal33 cells; [1]): 0.47 µM; IC50 (Cal33 cells; [6]): 0.47 µM |
| COc1ccc(C2=Nn3c(nnc3-c3[nH]nc4c3CCC4)SC2C(C)C)cc1 (centres unmarked) [UPCDC10318] | – | – | IC50 (Cal33 cells; [1]): 0.4 µM; IC50 (Cal33 cells; [6]): 0.4 µM |
| COc1ccc(C2=Nn3c(nnc3C(C)C)SC2C)cc1 (centres unmarked) [UPCDC10332] | – | – | IC50 (STAT3; [5]): 14.3 µM; IC50 (Cal33 cells; [1]): 0.16 µM |
| COc1ccc(C2=Nn3c(nnc3-c3ccccc3)SC2C)cc1 (centres unmarked) [UPCDC10352] | 27.6 µM | – | IC50 (STAT3; [5]): 27.6 µM; IC50 (Cal33 cells; [1]): 0.21 µM; IC50 (Cal33 cells; [6]): 0.21 µM |
| Clc1ccc(C2=Nn3c(nnc3-c3[nH]nc4c3CCC4)SC2)cc1 [UPCDC87346005] | – | – | IC50 (Cal33 cells; [1]): 0.77 µM |
| CC1Sc2nnc(-c3cc(-c4ccccc4)n[nH]3)n2N=C1c1ccccc1 (centres unmarked) [compound 10131] | 3 µM | 26.3 µM | – |
| CC1Sc2nnc(-c3cc(-c4ccccc4)n[nH]3)n2N=C1c1ccccc1 (centres unmarked) [compound 10260] | 4.8 µM | 42.7 µM | – |
| CC1Sc2nnc(-c3cc(-c4ccccc4)n[nH]3)n2N=C1c1ccccc1 (centres unmarked) [compound 10261] | 12.3 µM | 40 µM | – |
| CC1Sc2nnc(-c3[nH]nc4c3CCC4)n2N=C1c1ccc(Cl)c(Cl)c1 (centres unmarked) [compound 10263, 6-(3,4-Dichlorophenyl)-7-methyl-3-(2,4,5,6-tetrahydrocyclopenta[c]pyrazol-3-yl)-7H-[1,2,4]triazolo[3,4-b][1,3,4]thiadiazine] | 8.5 µM and 11 µM | – | – |
| CC1(C)Sc2nnc(-c3cc(-c4ccccc4)n[nH]3)n2N=C1c1ccccc1 [compound 10264] | 45.6 µM | 50 µM | – |
| COc1ccc(C2=Nn3c(nnc3-c3cc(-c4ccccc4)n[nH]3)SC2CC(C)C)cc1 (centres unmarked) [compound 10307] | – | 11.5 µM | – |
| COc1ccc(C2=Nn3c(nnc3-c3cc(-c4ccccc4)n[nH]3)SC2CCN)cc1 (centres unmarked) [compound 10371] | – | 24.1 µM | – |

Further lines, with some results ahead:

| IC50 (STAT3; [2]) | Compound | IC50 (Cal33 cells; [3]) | further results |
| --- | --- | --- | --- |
| 27.7 µM | CC1Sc2nnc(-c3[nH]nc4c3CCC4)n2N=C1c1ccc(F)cc1 (racemic) [compound 10282] | 31.3 µM | – |
| 26.5 µM | c1ccc(C2=Nn3c(nnc3-c3[nH]nc4c3CCC4)SC2c2ccccc2)cc1 (racemic) [compound 10298] | 1.1 µM | – |
| 4.4 µM | CC(C)C1Sc2nnc(-c3[nH]nc4c3CCC4)n2N=C1c1ccc(Cl)c(Cl)c1 (racemic) [compound 10299] | 8.2 µM | IC50 (STAT3; [4]): < 10 µM |
| 27.1 µM | CC(C)CC1Sc2nnc(-c3[nH]nc4c3CCC4)n2N=C1c1ccc(Cl)c(Cl)c1 (racemic) [compound 10304] | 3.5 µM | – |
| 38.2 µM | CC1(C)Sc2nnc(-c3cc(-c4ccc(Cl)cc4)n[nH]3)n2N=C1c1ccccc1 [compound 10268] | 50 µM | – |
| 18.6 µM | CC1(C)Sc2nnc(-c3[nH]nc4c3CCC4)n2N=C1c1ccc(Cl)c(Cl)c1 [compound 10283] | 50 µM | – |
| 7.5 µM | Clc1ccc(C2=Nn3c(nnc3-c3[nH]nc4c3CCC4)SC2Cc2ccccc2)cc1Cl (centres unmarked) [compound 10308] | 3.3 µM | IC50 (STAT3; [4]): < 10 µM |
| 22.6 µM | Clc1ccc(C2=Nn3c(nnc3-c3cc(-c4ccccc4)n[nH]3)SC2Cc2ccccc2)cc1Cl (centres unmarked) [compound 10309] | – | – |
| 21.6 µM | COc1ccc(C2=Nn3c(nnc3-c3cc(-c4ccccc4)n[nH]3)SC2C(C)C)cc1 (centres unmarked) [compound 10319] | 20 µM | – |
| 19.5 µM | COc1ccc(C2=Nn3c(nnc3-c3[nH]nc4c3CCC4)SC2Cc2ccccc2)cc1 (centres unmarked) [compound 10320] | 0.83 µM | – |
| 5.8 µM | COc1ccc(C2=Nn3c(nnc3-c3cc(-c4ccccc4)n[nH]3)SC2Cc2ccccc2)cc1 (centres unmarked) [compound 10321] | – | – |
| 33.2 µM | COCCC1Sc2nnc(-c3cc(-c4ccc(Cl)cc4)n[nH]3)n2N=C1c1ccc(OC)cc1 (centres unmarked) [compound 10373] | 4.8 µM | – |
| 8.5 µM | COCCC1Sc2nnc(-c3cc(-c4ccc(F)cc4)n[nH]3)n2N=C1c1ccc(OC)cc1 (centres unmarked) [compound 10374] | 14.4 µM | – |
| 8.8 µM | CCN(CC)CCC1Sc2nnc(-c3cc(-c4ccccc4)n[nH]3)n2N=C1c1ccc(OC)cc1 (centres unmarked) [compound 10380] | 3.7 µM | IC50 (STAT3; [4]): < 10 µM |
| 31.2 µM | COc1ccc(C2=Nn3c(nnc3-c3[nH]nc4c3CCC4)SC2CCN)cc1 (centres unmarked) [compound 10383] | 2.5 µM | – |
| 49.2 µM | COc1ccc(C2=Nn3c(nnc3-c3[nH]nc4c3CCC4)SC2CCO)cc1 (centres unmarked) [compound 10403] | 0.93 µM | – |
| 37.3 µM | O=C(CC1Sc2nnc(-c3cc(-c4ccccc4)n[nH]3)n2N=C1c1ccccc1)N1CCCC1 (centres unmarked) [compound 10410] | 43.5 µM | – |
| 11.1 µM | O=C(CC1Sc2nnc(-c3cc(-c4ccc(Cl)cc4)n[nH]3)n2N=C1c1ccccc1)N1CCCC1 (centres unmarked) [compound 10411] | 21.6 µM | – |
| 46.1 µM | COc1ccc(C2=Nn3c(nnc3-c3nn(C)c4c3CCC4)SC2C)cc1 (centres unmarked) [compound 10420] | 0.38 µM | – |
| 37.1 µM | COc1ccc(C2=Nn3c(nnc3-c3nn(C(C)=O)c4c3CCC4)SC2C)cc1 (centres unmarked) [compound 10421] | 0.26 µM | – |
